# Measurements taken from patent US20110313034A1, “NEUROACTIVE PLANT EXTRACT FROM HYPERICUM POLYANTHEMUM” (UNIVERSIDADE FEDERAL DO RIO GRANDE DO SUL, priority 2009, published 2011).
# Assays:
# [1] = tested on: synatosomal reuptake of GABA; conditions: in vitro; cited from earlier work
# [2] = tested on: synatosomal reuptake of glutamate; conditions: in vitro; cited from earlier work
# [3] = biological target: T1, synaptosomal reuptake of noradrenaline ([3H]-NA) (Rattus norvegicus, UniProt Q9WTR4); conditions: in vitro; cited from earlier work
# T1 sequence (Q9WTR4 1-597): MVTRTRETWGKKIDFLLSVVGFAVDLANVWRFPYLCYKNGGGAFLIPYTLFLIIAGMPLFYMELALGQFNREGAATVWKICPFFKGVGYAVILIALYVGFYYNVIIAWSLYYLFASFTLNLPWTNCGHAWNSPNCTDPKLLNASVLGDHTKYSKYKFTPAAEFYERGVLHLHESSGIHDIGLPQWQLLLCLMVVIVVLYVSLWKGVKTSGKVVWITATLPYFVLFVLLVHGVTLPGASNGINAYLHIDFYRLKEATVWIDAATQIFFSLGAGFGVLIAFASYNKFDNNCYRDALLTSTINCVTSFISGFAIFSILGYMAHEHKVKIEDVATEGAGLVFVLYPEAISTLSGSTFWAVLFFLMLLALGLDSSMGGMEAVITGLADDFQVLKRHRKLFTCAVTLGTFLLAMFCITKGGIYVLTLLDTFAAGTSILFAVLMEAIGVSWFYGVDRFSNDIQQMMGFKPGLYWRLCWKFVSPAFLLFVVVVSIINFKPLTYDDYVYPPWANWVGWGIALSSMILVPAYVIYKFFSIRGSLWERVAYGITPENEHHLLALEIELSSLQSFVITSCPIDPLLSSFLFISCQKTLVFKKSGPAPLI
# [4] = biological target: T2, synaptosomal reuptake of serotonin ([3H]-5HT) (Rattus norvegicus, UniProt P31652); conditions: in vitro; cited from earlier work
# T2 sequence (P31652 whole entry): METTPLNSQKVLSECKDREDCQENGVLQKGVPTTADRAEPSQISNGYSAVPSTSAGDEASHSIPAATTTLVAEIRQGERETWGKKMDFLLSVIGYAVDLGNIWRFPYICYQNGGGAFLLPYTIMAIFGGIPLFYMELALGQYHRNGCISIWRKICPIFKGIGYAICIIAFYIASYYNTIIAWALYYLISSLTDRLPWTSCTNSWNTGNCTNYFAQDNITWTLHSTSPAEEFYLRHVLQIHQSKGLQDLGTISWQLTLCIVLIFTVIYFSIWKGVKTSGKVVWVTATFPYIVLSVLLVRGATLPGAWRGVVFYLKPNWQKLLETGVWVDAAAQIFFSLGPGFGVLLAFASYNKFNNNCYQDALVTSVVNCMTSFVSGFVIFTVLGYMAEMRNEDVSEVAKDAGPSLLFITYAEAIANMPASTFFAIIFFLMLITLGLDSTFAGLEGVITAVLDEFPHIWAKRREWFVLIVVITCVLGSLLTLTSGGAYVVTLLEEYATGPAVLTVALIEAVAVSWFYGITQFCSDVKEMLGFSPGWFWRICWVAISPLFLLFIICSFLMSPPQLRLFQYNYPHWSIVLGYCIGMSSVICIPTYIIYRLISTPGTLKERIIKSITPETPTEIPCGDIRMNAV
# [5] = biological target: T3, synaptosomal reuptake of dopamine ([3H]-DA) (Rattus norvegicus, UniProt P23977); conditions: in vitro; cited from earlier work
# T3 sequence (P23977 whole entry): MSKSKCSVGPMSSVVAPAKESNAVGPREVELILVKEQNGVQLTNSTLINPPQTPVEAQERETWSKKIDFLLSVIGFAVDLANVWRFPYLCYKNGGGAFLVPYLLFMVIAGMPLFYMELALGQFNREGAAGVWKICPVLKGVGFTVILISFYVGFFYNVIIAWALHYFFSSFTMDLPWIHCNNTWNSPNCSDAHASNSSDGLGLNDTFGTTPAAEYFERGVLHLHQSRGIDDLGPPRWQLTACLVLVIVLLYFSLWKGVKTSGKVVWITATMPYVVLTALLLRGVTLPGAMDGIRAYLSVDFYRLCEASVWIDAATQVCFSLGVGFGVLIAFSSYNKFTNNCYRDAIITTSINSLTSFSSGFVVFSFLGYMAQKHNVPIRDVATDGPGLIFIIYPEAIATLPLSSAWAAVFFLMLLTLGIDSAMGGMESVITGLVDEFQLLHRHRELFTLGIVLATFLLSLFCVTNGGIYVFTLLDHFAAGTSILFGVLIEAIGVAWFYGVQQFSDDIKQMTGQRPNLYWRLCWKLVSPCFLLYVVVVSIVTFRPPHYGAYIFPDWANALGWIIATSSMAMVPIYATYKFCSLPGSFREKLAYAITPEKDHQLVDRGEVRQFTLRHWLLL
# corticosterone = test: serum and cortical corticosterone in mice subjected to forced swimming (radioimmunoassay); type: in vivo; conditions: three days of treatment, POL 360 mg/kg p.o., imipramine 20 mg/kg, bupropion 30 mg/kg; for serum levels of corticosterone: forced swimming
# Method: Data are presented as mean±SEM. *p<0.01 compared to respective group without swimming; #p<0.01 compared to SAL with swimming. Legend: (A) X axis—corticosterone levels (μg/100 mL plasma); Blank values: no swimming; values hatch: with swim, (B) X axis—cortical Corticosterone (pg/100 mg tissue).
# We evaluated the action of POL (360 mg/kg, p.o.) on serum and cortical levels of corticosterone in mice subjected or not to stress caused by forced swimming. The concentration of corticosterone present in the samples was measured by radioimmunoassay.
# monoamine oxidase A = biological target: T4, monoamine oxidase A (Rattus norvegicus, UniProt P21396); conditions: mitochondria from rat brain; cited from earlier work
# T4 construct: in preparations of mitochondria from rat brain; from tissue; host or cells: rat brain mitochondria
# T4 sequence (P21396 1-526): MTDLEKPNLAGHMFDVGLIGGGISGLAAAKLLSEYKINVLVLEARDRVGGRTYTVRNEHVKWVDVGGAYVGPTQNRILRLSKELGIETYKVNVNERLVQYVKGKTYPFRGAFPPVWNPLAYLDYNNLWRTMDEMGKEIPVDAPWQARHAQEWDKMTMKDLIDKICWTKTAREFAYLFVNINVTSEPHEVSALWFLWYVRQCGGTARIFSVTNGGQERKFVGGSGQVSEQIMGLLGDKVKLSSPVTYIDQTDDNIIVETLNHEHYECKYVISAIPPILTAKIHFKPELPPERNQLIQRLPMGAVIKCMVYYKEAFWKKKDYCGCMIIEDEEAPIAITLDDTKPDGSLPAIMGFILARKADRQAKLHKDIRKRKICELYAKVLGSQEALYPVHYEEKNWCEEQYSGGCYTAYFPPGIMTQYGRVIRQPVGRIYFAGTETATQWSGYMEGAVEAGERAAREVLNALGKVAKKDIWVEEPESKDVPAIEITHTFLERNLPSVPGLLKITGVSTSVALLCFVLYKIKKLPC
# immobility time of mice = test: Porsolt's forced swimming test (FST) in mice; type: in vivo, CF1 mice; conditions: 90 mg/kg, p.o.
# Method: The species H. caprifoliatum, H. carinatum, H. connatum, H. myrianthum, H. piriai, H. polyanthemum and H. cordatum, and three isolated benzopyrans of H. polyanthemum (HP1, HP2, and HP3) were tested for inhibitory activity of monoamine oxidase A and B in preparations of mitochondria from rat brain.
# Results are expressed as mean±SEM. * Significant difference compared to the SAL group (water+polysorbate 80, 5%, 1 ml/kg, p.o.) # significant difference compared to POL270 (ANOVA F(7,79)=5.9, p<0.001).
# Results are expressed as mean±SEM. *Significant difference compared to the SAL group (water+polysorbate 80, 5%, 1 ml/kg, p.o.) (ANOVA, F(2,29)=15.5, p<0.001).
# POL was active in rats (270 mg/kg/day, p.o.) and mice (180, 270 and 360 mg/kg, p.o.). The action of POL in the FST was blocked by administration of SCH 23390 (dopamine D1 antagonist) […], i.p., and sulpiride (D2 dopamine antagonist) 50 mg/kg, ip, (FIG. 1). HP4 was active at a dose of 90 mg/kg, p.o. in mice (FIG. 2).
# sites of uptake of DA = biological target: T5, sites of uptake of DA (Rattus norvegicus, UniProt P23977); test: binding of [3H]-mazindol to sites of uptake of DA, striatum membranes; conditions: 3×10^−7-3×10^−11 g/mL
# T5 construct: in synaptosomes prepared from striatum, hypothalamus and frontal cortex, respectively; from tissue; host or cells: striatum (synaptosomes; membranes)
# T5 sequence (P23977 whole entry): as the sequence (P23977 whole entry) above
# [6] = biological target: T2, synaptosomal reuptake of serotonin ([3H]-5HT); test: synaptosomal reuptake of serotonin ([3H]-5HT), frontal cortex synaptosomes; type: biochemical; parameters: in synaptosomes prepared from striatum, hypothalamus and frontal cortex, respectively; from tissue; host or cells: frontal cortex (synaptosomes; membranes); conditions: synaptosomes from frontal cortex; HP4 3×10^−4-3×10^−11 g/mL; read-out: IC50, synaptosomal uptake of 5-HT
# Source text: (§1) The effect of HP4 (3×10^−4-3×10^−11 g/mL) on synaptosomal reuptake of dopamine ([^3H]-DA), noradrenaline ([^3H]-NA) and serotonin ([^3H]-5HT) in synaptosomes prepared from striatum, hypothalamus and frontal cortex, respectively. […] This profile differs from other antidepressants, which inhibit the reuptake of monoamines through competition for binding site on the transporter.
# [7] = biological target: T3, synaptosomal reuptake of dopamine ([3H]-DA); test: synaptosomal reuptake of dopamine ([3H]-DA), striatum synaptosomes; type: biochemical; parameters: in synaptosomes prepared from striatum, hypothalamus and frontal cortex, respectively; from tissue; host or cells: striatum (synaptosomes; membranes)
# Source text: as §1
# [8] = biological target: T1, synaptosomal reuptake of noradrenaline ([3H]-NA); test: synaptosomal reuptake of noradrenaline ([3H]-NA), hypothalamus synaptosomes; type: biochemical; parameters: in synaptosomes prepared from striatum, hypothalamus and frontal cortex, respectively; from tissue; host or cells: hypothalamus (synaptosomes; membranes); conditions: synaptosomes from hypothalamus; HP4 3×10^−4-3×10^−11 g/mL; read-out: IC50, synaptosomal uptake of NA
# Source text: as §1
# sites of uptake of 5-HT = biological target: T6, sites of uptake of 5-HT (Rattus norvegicus, UniProt P31652); test: binding of [3H]-citalopram to sites of uptake of 5-HT, frontal cortex membranes; conditions: 3×10^−7-3×10^−11 g/mL
# T6 construct: in synaptosomes prepared from striatum, hypothalamus and frontal cortex, respectively; from tissue; host or cells: frontal cortex (synaptosomes; membranes)
# T6 sequence (P31652 whole entry): as the sequence (P31652 whole entry) above
# G proteins = test: direct incubation of membranes with HP4, [35S]GTPγS binding; type: biochemical, rats
# Method: To evaluate the effect of POL on DA, NA, 5-HT and opioids receptors, we used the technique of binding of [^35S] GTPγS stimulated by DA, NA, 5-HT and DAMGO in membranes prepared from striatum, hypothalamus, frontal cortex and thalamus of rats, respectively. […] GTPγS stimulated by DA, NA and 5-HT, while 5 days of treatment with 90 mg/kg, decreases this binding. […] This time profile of action coincides with the modern theories that the antidepressant effect is related to neuroadaptation processes.
# GTPγS to its site. […] These changes can occur through other regulatory mechanisms or are related to HP4 metabolites produced after administration in vivo of POL. […] GTPγS stimulated by agonists after different treatment regimens with saline and POL.
# sites of uptake of NA = biological target: T7, sites of uptake of NA (Rattus norvegicus, UniProt Q9WTR4); test: binding of [3H]-nisoxetina to sites of uptake of NA, hypothalamus membranes; conditions: 3×10^−7-3×10^−11 g/mL
# T7 construct: in synaptosomes prepared from striatum, hypothalamus and frontal cortex, respectively; from tissue; host or cells: hypothalamus (synaptosomes; membranes)
# T7 sequence (Q9WTR4 1-597): as the sequence (Q9WTR4 1-597) above
compound,measurement,setting,value
hyperforin,inhibition of synaptosomal reuptake of GABA,[1],inhibits
same,inhibition of synaptosomal reuptake of glutamate,[2],inhibits
same,inhibition of synaptosomal reuptake of norepinephrine,[3],inhibit
same,inhibition of synaptosomal reuptake of serotonin,[4],inhibit
same,inhibition of synaptosomal reuptake of dopamine,[5],inhibit
CN(C)CCCN1c2ccccc2CCc2ccccc21 [imipramine],level of cortical corticosterone raised by forced swimming,corticosterone,alters both serum and cortical levels
same,serum levels of corticosterone,corticosterone,alters both serum and cortical levels
"COc1cc2c(c(O)c1C(=O)C(C)C)C=CC(C)(C)O2 [HP3, 5-hydroxy-6-isobutyryl-7-methoxy-2,2-dimethyl-benzopyran]",IC50,monoamine oxidase A,22200 nM
"CC(C)C(=O)C1=C(O)C(C)(C)C(O)=C(Cc2c(O)c3c(c(C(=O)C(C)C)c2O)OC(C)(C)C=C3)C1=O [HP4, uliginosin B]",activity in forced swimming test,immobility time of mice,active
same,effect on binding of [3H]-mazindol to sites of uptake of DA,sites of uptake of DA,did not affect the binding
same,IC50,[6],252 ± 13 nM
same,IC50 for dopamine relative to IC50 for NA and 5-HT (reuptake selectivity),[7]; in vitro synaptosomal reuptake,almost three times smaller
same,IC50,"[7]; synaptosomes from striatum, HP4 3×10^−4-3×10^−11 g/mL, read-out: IC50, synaptosomal uptake of DA",90 ± 38 nM
same,IC50,[8],280 ± 48 nM
same,effect on binding of [3H]-citalopram to sites of uptake of 5-HT,sites of uptake of 5-HT,did not affect the binding
same,effect on binding of [35S]GTPγS to its site,G proteins,did not alter the binding
same,effect on binding of [3H]-nisoxetina to sites of uptake of NA,sites of uptake of NA,did not affect the binding
CC(NC(C)(C)C)C(=O)c1cccc(Cl)c1 (stereo not shown) [bupropion],level of cortical corticosterone raised by forced swimming,corticosterone,alters both serum and cortical levels
same,serum levels of corticosterone,corticosterone,alters both serum and cortical levels
